# Laboratory results reported in article PMC9005681, “Use of AD Informer Set compounds to explore validity of novel targets in Alzheimer's disease pathology” (Alzheimer's & Dementia : Translational Research & Clinical …, 2022).
# Values joined by “and” are separate entries in the source; they are usually repeats but may differ in a detail not shown here. Equal values may be shown once.
# What was measured:
# Test in all cases: PDSP GPCR panel primary binding assays at 10 μM
# [1] = biological target: T1, cloned human or rodent CNS receptors, channels, and transporters (PDSP panel) (Homo sapiens, UniProt P50406); conditions: 5-HT6, primary assay
# T1 construct: expressed in transfected cells
# How it was run: (§1)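 Primary screen: 10 μM, quadruplicate, displacement of radio-labeled standard ligand. Hit cut-off >50% mean displacement → secondary 11-point dose-response, triplicate. H3, PBR, GABAA excluded from follow-up.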
# [2] = biological target: T2, cloned human or rodent CNS receptors, channels, and transporters (PDSP panel) (Homo sapiens, UniProt P08173); conditions: M4, primary assay
# T2 construct: expressed in transfected cells
# T2 sequence (P08173 1-479): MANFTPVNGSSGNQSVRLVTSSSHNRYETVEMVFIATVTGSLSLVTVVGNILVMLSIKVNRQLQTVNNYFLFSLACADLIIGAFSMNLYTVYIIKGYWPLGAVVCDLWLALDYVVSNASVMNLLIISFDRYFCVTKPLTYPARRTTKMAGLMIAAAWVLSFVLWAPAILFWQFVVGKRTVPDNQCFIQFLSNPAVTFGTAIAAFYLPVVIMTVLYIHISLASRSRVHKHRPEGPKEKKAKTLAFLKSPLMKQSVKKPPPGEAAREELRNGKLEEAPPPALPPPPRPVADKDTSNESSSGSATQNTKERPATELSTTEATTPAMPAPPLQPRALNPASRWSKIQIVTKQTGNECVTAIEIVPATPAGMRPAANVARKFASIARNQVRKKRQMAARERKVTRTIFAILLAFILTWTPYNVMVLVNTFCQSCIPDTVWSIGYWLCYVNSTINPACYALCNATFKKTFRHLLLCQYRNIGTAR
# How it was run: as §1
# [3] = test system: cloned human or rodent CNS receptors, channels, and transporters (PDSP panel); conditions: primary assay; for Mean %: mean inhibition; for Inhibition 1: replicate 1; for Inhibition 2: replicate 2; for Inhibition 3: replicate 3; for Inhibition 4: replicate 4
# How it was run: as §1
# [4] = biological target: T3, cloned human or rodent CNS receptors, channels, and transporters (PDSP panel) (Homo sapiens, UniProt P21917); conditions: D4, primary assay
# T3 construct: expressed in transfected cells
# T3 sequence (P21917 1-419): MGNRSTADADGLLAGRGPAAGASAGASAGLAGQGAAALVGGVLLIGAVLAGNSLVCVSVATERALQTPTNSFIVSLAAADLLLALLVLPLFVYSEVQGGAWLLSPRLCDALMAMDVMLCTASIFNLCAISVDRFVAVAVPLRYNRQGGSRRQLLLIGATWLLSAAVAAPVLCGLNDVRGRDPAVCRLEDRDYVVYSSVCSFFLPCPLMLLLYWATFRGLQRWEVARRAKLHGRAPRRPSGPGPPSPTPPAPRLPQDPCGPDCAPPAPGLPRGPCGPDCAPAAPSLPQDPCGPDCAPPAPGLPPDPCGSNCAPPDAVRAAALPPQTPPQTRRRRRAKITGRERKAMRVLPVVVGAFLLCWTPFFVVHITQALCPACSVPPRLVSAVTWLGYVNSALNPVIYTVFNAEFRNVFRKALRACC
# How it was run: as §1
# [5] = biological target: T4, cloned human or rodent CNS receptors, channels, and transporters (PDSP panel) (Homo sapiens, UniProt P20309); conditions: M3, primary assay
# T4 construct: expressed in transfected cells
# How it was run: as §1
# [6] = biological target: T5, cloned human or rodent CNS receptors, channels, and transporters (PDSP panel) (Homo sapiens, UniProt P08908); conditions: 5-HT1A, primary assay
# T5 construct: expressed in transfected cells
# T5 sequence (P08908 1-422): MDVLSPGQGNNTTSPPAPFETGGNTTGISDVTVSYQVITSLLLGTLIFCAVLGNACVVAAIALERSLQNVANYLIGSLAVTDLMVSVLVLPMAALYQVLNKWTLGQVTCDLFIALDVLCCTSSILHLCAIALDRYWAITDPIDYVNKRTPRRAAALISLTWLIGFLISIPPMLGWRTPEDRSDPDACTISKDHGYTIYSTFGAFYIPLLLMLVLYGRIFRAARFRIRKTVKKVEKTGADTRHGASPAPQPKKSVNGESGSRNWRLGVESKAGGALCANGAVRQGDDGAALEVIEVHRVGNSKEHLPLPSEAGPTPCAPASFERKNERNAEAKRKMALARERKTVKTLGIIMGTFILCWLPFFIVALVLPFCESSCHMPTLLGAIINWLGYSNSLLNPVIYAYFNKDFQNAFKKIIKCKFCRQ
# How it was run: as §1
# T4 sequence (P20309 whole entry): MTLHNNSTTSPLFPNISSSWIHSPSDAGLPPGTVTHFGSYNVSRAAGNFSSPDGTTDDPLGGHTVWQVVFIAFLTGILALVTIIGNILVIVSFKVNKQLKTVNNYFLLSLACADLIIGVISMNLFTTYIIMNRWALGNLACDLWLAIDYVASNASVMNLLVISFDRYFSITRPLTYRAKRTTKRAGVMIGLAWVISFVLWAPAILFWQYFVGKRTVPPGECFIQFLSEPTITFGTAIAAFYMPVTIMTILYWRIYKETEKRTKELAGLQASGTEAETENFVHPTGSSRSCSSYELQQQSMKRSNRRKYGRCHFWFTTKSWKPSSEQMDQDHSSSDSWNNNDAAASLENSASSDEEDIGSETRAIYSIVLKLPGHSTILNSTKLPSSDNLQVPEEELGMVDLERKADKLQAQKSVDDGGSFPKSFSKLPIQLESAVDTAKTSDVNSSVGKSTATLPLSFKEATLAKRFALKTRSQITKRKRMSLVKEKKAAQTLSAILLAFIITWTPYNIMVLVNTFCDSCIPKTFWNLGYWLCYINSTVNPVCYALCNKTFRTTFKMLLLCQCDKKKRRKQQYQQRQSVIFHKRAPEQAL
# T1 sequence (P50406 whole entry): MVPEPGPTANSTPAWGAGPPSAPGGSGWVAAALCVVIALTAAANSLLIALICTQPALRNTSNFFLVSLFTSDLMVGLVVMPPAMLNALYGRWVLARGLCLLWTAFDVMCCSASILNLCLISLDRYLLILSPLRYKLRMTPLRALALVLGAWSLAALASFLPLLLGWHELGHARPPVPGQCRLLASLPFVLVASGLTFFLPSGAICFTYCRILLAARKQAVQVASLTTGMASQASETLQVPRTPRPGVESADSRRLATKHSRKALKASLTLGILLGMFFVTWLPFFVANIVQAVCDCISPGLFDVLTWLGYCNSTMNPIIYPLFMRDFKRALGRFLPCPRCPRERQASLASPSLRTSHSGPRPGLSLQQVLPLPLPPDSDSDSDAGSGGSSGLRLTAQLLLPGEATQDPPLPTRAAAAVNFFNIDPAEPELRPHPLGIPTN
smiles,measurement,setting,value
"O=C(NC1CC1)C(=O)C(Cc1ccccc1)NC(=O)[C@H]1CCC(=O)N1Cc1ccccc1 (stereo partly drawn) [UNC10302676A, ABT-957 (Alicapistat)]",Mean %,[1]; mean inhibition,-7.55%
same,Inhibition 1,[1]; replicate 1,7.34%
same,Inhibition 2,[1]; replicate 2,-8.22%
same,Inhibition 3,[1]; replicate 3,-20.76%
same,Inhibition 4,[1]; replicate 4,-8.54%
same,Mean %,[2]; mean inhibition,-0.92%
same,Inhibition 1,[2]; replicate 1,-9.99%
same,Inhibition 2,[2]; replicate 2,-2.41%
same,Inhibition 3,[2]; replicate 3,-11.37%
same,Inhibition 4,[2]; replicate 4,20.1%
same,Mean %,[3]; Alpha1A,-18.33%
same,Inhibition 1,[3]; Alpha1A,-14.03%
same,Inhibition 2,[3]; Alpha1A,-31.43%
same,Inhibition 3,[3]; Alpha1A,-21.43%
same,Inhibition 4,[3]; Alpha1A,-6.43%
same,Mean %,[3]; Alpha2A,5.04%
same,Inhibition 1,[3]; Alpha2A,2.51%
same,Inhibition 2,[3]; Alpha2A,2.44%
same,Inhibition 3,[3]; Alpha2A,-2.65%
same,Inhibition 4,[3]; Alpha2A,17.86%
same,Mean %,[3]; Alpha2C,-12.84%
same,Inhibition 1,[3]; Alpha2C,-8.12%
same,Inhibition 2,[3]; Alpha2C,-10.33%
same,Inhibition 3,[3]; Alpha2C,-21.43%
same,Inhibition 4,[3]; Alpha2C,-11.46%
same,Mean %,[3]; BZP Rat Brain Site,3.75%
same,Inhibition 1,[3]; BZP Rat Brain Site,19.6%
same,Inhibition 2,[3]; BZP Rat Brain Site,-1.35%
same,Inhibition 3,[3]; BZP Rat Brain Site,-4.1%
same,Inhibition 4,[3]; BZP Rat Brain Site,0.83%
same,Mean %,[3]; DOR,-6.76%
same,Inhibition 1,[3]; DOR,2.73%
same,Inhibition 2,[3]; DOR,-0.34%
same,Inhibition 3,[3]; DOR,-9.56%
same,Inhibition 4,[3]; DOR,-19.86%
same,Inhibition 1,[3]; GABAA,23.2% and -15.74%
same,Inhibition 2,[3]; GABAA,18.02% and -7.64%
same,Inhibition 3,[3]; GABAA,-2.68% and 0%
same,Inhibition 4,[3]; GABAA,4.71% and -21.69%
same,Mean %,[3]; H3,-14.21%
same,Inhibition 1,[3]; H3,-25.14%
same,Inhibition 2,[3]; H3,-2.99%
same,Inhibition 3,[3]; H3,-42.04%
same,Inhibition 4,[3]; H3,13.33%
same,Mean %,[3]; H4,-11.52%
same,Inhibition 1,[3]; H4,-3.78%
same,Inhibition 2,[3]; H4,-13.62%
same,Inhibition 3,[3]; H4,-23.94%
same,Inhibition 4,[3]; H4,-4.74%
same,Mean %,[3]; Sigma 1,-2.52%
same,Mean %,[3]; Sigma 2,7.31%
same,Mean %,[4]; mean inhibition,0.58%
same,Inhibition 1,[4]; replicate 1,5.07%
same,Inhibition 2,[4]; replicate 2,-11.66%
same,Inhibition 3,[4]; replicate 3,8.7%
same,Inhibition 4,[4]; replicate 4,0.19%
same,Mean %,[5]; mean inhibition,-7.1%
same,Inhibition 1,[5]; replicate 1,3.98%
same,Inhibition 2,[5]; replicate 2,-16.69%
same,Inhibition 3,[5]; replicate 3,-10.47%
same,Inhibition 4,[5]; replicate 4,-5.21%
same,Mean %,[6]; mean inhibition,3.84%
same,Inhibition 1,[6]; replicate 1,12.84%
same,Inhibition 2,[6]; replicate 2,2.5%
same,Inhibition 3,[6]; replicate 3,6.64%
same,Inhibition 4,[6]; replicate 4,-6.64%
